Assay [1] has as its system FLT3-transformed K562 cells. Nature of the assay: MTT assay, inhibitors against FLT3 subfactors co-treated with imatinib. The assay is classed as cell-based. The following applies: for Apoptotic effect and drug tolerance (MTT) when co-treated with imatinib: imatinib 1 μM plus inhibitor at three concentrations, 4 days, FIGS. 9a-9e; for Apoptotic effect and drug tolerance when JAK, STAT3, TAZ, TEAD and CD36 are inhibited: summary statement in the description, treatment conditions not given. As for the experimental part: AZD1480 (Selleckem, Cat. No. S2162) was used as a JAK inhibitor, C188-9 (Selleckem, Cat. No. S8605) was used as a STAT3 inhibitor, verteporfin (Selleckem, Cat. No. S1786) was used as a TAZ inhibitor, flufenamic acid (Selleckem, Cat. No. S4268) was used as a TEAD inhibitor, and sulfo-N-succinimidyl oleate (Cayman, Cat. No. 11211) was used as a CD36 inhibitor. […] After treating with each inhibitor for 4 days, MTT assay was conducted in the same manner as in Test Example 5 and absorbance was measured at 540 nm using a multiplate reader (FIG. 9).

For assay [2], the system named is wild-type (WT) K562 cells. Nature of the assay: Drug tolerance test: surviving cells counted after 17 days of anticancer drug treatment. The assay is classed as cell-based. The note with it: 1 μM drug.
For assay [3], the system named is FLT3-transformed K562 cells. The description is as above. The assay is classed as cell-based. The following applies: K562 FLT3, 1 μM drug. As for the experimental part: Drug tolerance was tested using FLT3-transformed K562 cells (ATCC, CCL-243) mimicking the blast crisis of chronic myelogenous leukemia.
After administering three anticancer drugs against chronic myelogenous leukemia for 17 days to the FLT3-transformed K562 cells, the surviving cells were counted (Table 1).

Assay [4] concerns FLT3-transformed K562 cells having resistance to three drugs (imatinib, dasatinib and nilotinib). The note with it: single agent; FIGS. 4-7.
The subject of assay [5] is FLT3-transformed K562 cells having resistance to imatinib. The assay can be described thus: MTT assay, FLT3 inhibitors co-administered with imatinib. The assay is classed as cell-based. The note with it: 1 μM imatinib alone, 5 days. As for the experimental part: The cells were cultured using DMEM (Hyclone) containing 10% FBS (Gibco). […] The concentration of the FLT3 inhibitor was as follows. […] 5 days later, after adding 100 μL of an MTT labeling reagent included in a cell proliferation kit (Roche) to each well for 2 hours and then treating with […] of a solubilization solution for 24 hours, absorbance was measured at a wavelength of 540 nm using a multiplate reader (FIGS. 8a-8c).
(In general: Tetrazolium dyes change colour on reduction, which living cells bring about.)

Consider eight compounds from US20210252009A1, “COMPOSITION COMPRISING FLT3 INHIBITOR AS EFFECTIVE INGREDIENT FOR INHIBITING DRUG RESISTANCE IN CHRONIC MYELOGENOUS LEUKEMIA” (INDUSTRY-ACADEMIC COOPERATION FOUNDATION, YONSEI UNIVERSITY, priority 2018, published 2021).

Consider `CCCCCCCC/C=C\CCCCCCCC(=O)ON1C(=O)CC(S(=O)(=O)O)C1=O` (centres unmarked) [sulfo-N-succinimidyl oleate], for which, in assay [1], the “Apoptotic effect and drug tolerance (MTT) when co-treated with imatinib” value was “remarkably enhanced apoptotic effect and inhibited drug tolerance”; the “Apoptotic effect and drug tolerance when JAK, STAT3, TAZ, TEAD and CD36 are inhibited” value was “apoptotic effect is enhanced remarkably and drug tolerance is inhibited”.
For `Cc1cn(-c2cc(NC(=O)c3ccc(C)c(Nc4nccc(-c5cccnc5)n4)c3)cc(C(F)(F)F)c2)cn1` [nilotinib], the Cell number was 1 × 10^5 in assay [2] (Day 0); 0.9675 × 10^5 in assay [2] (Day 5); 0.23 × 10^5 in assay [2] (Day 9); 0.76 × 10^5 in assay [2] (Day 11); 0.09 × 10^5 in assay [2] (Day 13); 0 × 10^5 in assay [2] (Day 15). The Cell number is given as 0 × 10^5 in assay [2] (Day 17); 1 × 10^5 in assay [3] (Day 0); 2.0975 × 10^5 in assay [3] (Day 5); 1.38 × 10^5 in assay [3] (Day 9); 2.64 × 10^5 in assay [3] (Day 11); 2.84 × 10^5 in assay [3] (Day 13). Moreover, the Cell number in assay [3] (Day 15) was 4.52 × 10^5; in assay [3] (Day 17), 17.1 × 10^5. The “Killing of resistant cells, treated only with the one agent” value in assay [4] is given as “hardly killed”.
Take `Cc1ccc(NC(=O)c2ccc(CN3CCN(C)CC3)cc2)cc1Nc1nccc(-c2cccnc2)n1` [imatinib]: the Cell number is reported as 1 × 10^5 in assay [2] (Day 0); 0.485 × 10^5 in assay [2] (Day 5); 0.058 × 10^5 in assay [2] (Day 9); 0.52 × 10^5 in assay [2] (Day 11); 0.175 × 10^5 in assay [2] (Day 13); 0 × 10^5 in assay [2] (Day 15). Further, the Cell number is reported as 0 × 10^5 in assay [2] (Day 17); 1 × 10^5 in assay [3] (Day 0); 1.013 × 10^5 in assay [3] (Day 5); 1.905 × 10^5 in assay [3] (Day 9); 1.82 × 10^5 in assay [3] (Day 11); 3.17 × 10^5 in assay [3] (Day 15). Also, the Cell number in assay [3] (Day 17) was 14.3 × 10^5. For the same compound, the “Killing of FLT3-overexpressed K562 cells (MTT), imatinib only” value in assay [5] is on record as “could not be killed”. Also, in assay [4], the “Killing of resistant cells, treated only with the one agent” value was “hardly killed”.
With `COc1ccc(S(=O)(=O)Nc2cc(-c3c(O)ccc4ccccc34)c(O)c3ccccc23)cc1` [C188-9], in assay [1], the “Apoptotic effect and drug tolerance (MTT) when co-treated with imatinib” value was “remarkably enhanced apoptotic effect and inhibited drug tolerance”; the “Apoptotic effect and drug tolerance when JAK, STAT3, TAZ, TEAD and CD36 are inhibited” value is “apoptotic effect is enhanced remarkably and drug tolerance is inhibited”.
Regarding verteporfin, in assay [1], the “Apoptotic effect and drug tolerance (MTT) when co-treated with imatinib” value is “remarkably enhanced apoptotic effect and inhibited drug tolerance”; the “Apoptotic effect and drug tolerance when JAK, STAT3, TAZ, TEAD and CD36 are inhibited” value is “apoptotic effect is enhanced remarkably and drug tolerance is inhibited”.
For the compound `O=C(O)c1ccccc1Nc1cccc(C(F)(F)F)c1` [flufenamic acid], in assay [1], the “Apoptotic effect and drug tolerance (MTT) when co-treated with imatinib” value was “remarkably enhanced apoptotic effect and inhibited drug tolerance”; the “Apoptotic effect and drug tolerance when JAK, STAT3, TAZ, TEAD and CD36 are inhibited” value was “apoptotic effect is enhanced remarkably and drug tolerance is inhibited”.
With `Cc1cc(Nc2nc(N[C@@H](C)c3ncc(F)cn3)ncc2Cl)n[nH]1` [AZD1480], in assay [1], the “Apoptotic effect and drug tolerance (MTT) when co-treated with imatinib” value was “remarkably enhanced apoptotic effect and inhibited drug tolerance”; the “Apoptotic effect and drug tolerance when JAK, STAT3, TAZ, TEAD and CD36 are inhibited” value is “apoptotic effect is enhanced remarkably and drug tolerance is inhibited”.
As for `Cc1nc(Nc2ncc(C(=O)Nc3c(C)cccc3Cl)s2)cc(N2CCN(CCO)CC2)n1` [dasatinib], the Cell number in assay [2] (Day 0) is reported as 1 × 10^5; in assay [2] (Day 5), 0.8075 × 10^5; in assay [2] (Day 9) it was 0.35 × 10^5; in assay [2] (Day 11), 0.47 × 10^5; in assay [2] (Day 13) it was 0 × 10^5; in assay [2] (Day 15), 0 × 10^5. The Cell number in assay [2] (Day 17) was 0 × 10^5; in assay [3] (Day 5) it was 1.57 × 10^5; in assay [3] (Day 9) it was 2.87 × 10^5; in assay [3] (Day 11) it was 2.23 × 10^5; in assay [3] (Day 13), 2.26 × 10^5; in assay [3] (Day 15), 1.76 × 10^5. Further, the Cell number in assay [3] (Day 17) is 9.33 × 10^5.
